In brackets after ≈: the same amount, converted by molar mass. Counter-ions that a name gives are not always drawn. One block for each compound: values may come before it.
What was measured:
[1] = Solubility of esters, absorbance of saturated solutions at 262 nm; type: physicochemical; details: for Solubility: saturated solution, pH 7 (50 mM phosphate buffer), room temperature; for water solubility: in water
[2] = test system: protease Prozyme 6 (Enzyme F); assay: Homogeneous aqueous enzymatic resolution with Enzyme F; type: biochemical, Aspergillus oryzae; details: for % e.e.: naproxen acid product (R), 100 mg Prozyme 6, pH 7.0, 25 C
Protocol: The enzymatic reaction mixtures were capped and briefly shaken until all the substrate had dissolved, and the enzyme had completely dissolved or dispersed. […] Evaporation of the ether left a white solid. The result is summarized below in Table 11 Rotations were measured at c=1 in CHCl3.
The enzymatic reaction mixtures were capped and briefly shaken until all the substrate had dissolved, and the enzyme had completely dissolved or dispersed. […] Evaporation of the ether left a white solid. Rotations were measured at c=1 in CHCl3.
The reaction was started by adding 100 mg of the protease (F) from the fungus Aspergillus oryzae (from Amano Enzyme Corporation, Prozyme 6, 60,000 units per mg of solid).
After 20 hours at room temperature, the solution was acidified to pH 2 and extracted with 3 volumes of diethyl ether. The aqueous phase was saved for subsequent workup. The ether phase was washed with two volumes of distilled water and then one volume of saturated sodium chloride, and then it was dried over MgSO4 and subsequently evaporated to dryness. The resolved ibuprofen product recovered was 930 mg of white powder, indicating 45% conversion of racemic ester to acid. The optical rotation was -0.580° (measured at c=1 in ethanol), indicating the R isomer of ibuprofen.
35 mg of protease Enzyme F, as the commercial preparation Prozyme 6, were added to the aqueous solution. The reaction flask was capped, and briefly shaken until all the enzyme had dissolved or dispersed. […] The resulting mixture was diluted with one volume of water and was extracted with diethyl ether (2 times 200 ml). The ether layers were combined and backwashed with water (2 times 200 ml), saturated NaCl solution (200 ml), and then dried over MgSO4.
In this control run, a 0.5M ester solution of (1) was prepared in 325 ml of 0.1M sodium phosphate buffer (pH 7.0). The reaction was started by adding 3 gm of the above enzyme (F). The pH was controlled at 7.0 with 8.22M sodium hydroxide. After 6.49 hours at 30° C., 6.63 ml of hydroxide were added, indicating 37.7% conversion. The reaction was allowed to continue overnight and, after 23.1 hours, a total of 7.2 ml of sodium hydroxide were added, indicating 40.9% conversion.

[3] = test system: Candida lipase, Genzyme (Enzyme G); assay: Asymmetric hydrolysis in a multiphasic bioreactor with Enzyme G
Protocol: 3.0 grams of the lipase were dissolved in 500 mls of distilled water; this solution was recirculated in an ultrafiltration mode from the shell into the lumen and back to the reservoir for 30 minutes. The ultrafiltrate was then collected until the reservoir was empty, and methyl isobutyl ketone (MIBK) was then pumped into the shell and recirculated at 400-450 ml/min with a 5-7 psig shell pressure to remove any remaining enzyme solution from the shell.
A reactor was prepared as described in Example 6.2.2.5 (naproxen) using essentially the same mode of loading the enzyme, 3.0 grams of Candida lipase (Enzyme G, from Genzyme Corporation) were ultrafiltered from the shell into the lumen. […] The module was then drained.
No organic solvent was required as the substrate is already a water-immiscible liquid. Phosphate buffer was immediately pumped into the lumen and recirculated at 400-450 ml/min.
The reaction was monitored by following acid production based on hydroxide titration data. […] The aqueous buffer was replaced after 76 minutes and acidified to pH 2.0 with concentrated HCl in the presence of about 200 ml of chloroform.

[4] = test system: Protease XXIII from Aspergillus oryzae (Enzyme A); assay: Homogeneous aqueous enzymatic resolution (ester hydrolysis) with Enzyme A; type: biochemical; details: 100 mg enzyme A
Protocol: No further purification was performed.

[5] = test system: Candida lipase, Sigma L-1754 (Enzyme H); assay: Asymmetric hydrolysis in a multiphasic bioreactor with Enzyme H
Protocol: The enzyme solution was recirculated from the shell side to the lumen side and back to the solution reservoir in an ultra-filtration mode. […] The procedure was completed in one hour.
The recirculation rate was 400 ml/min and the average pressure on the shell compartment was kept at 6.5 psi by adjusting a throttling valve at the shell side exit. On the lumen side 1 liter of 0.05M K2 PO4 was recirculated at a rate of 400 ml/min. The pH of the aqueous reservoir was kept at 7.0 by addition of 1M NaOH. The reactor was run continuously for 6.8 days.
The reaction progress and rate were monitored by following the caustic consumption.

SMILES: COC(=O)C(C)c1ccc2cc(OC)ccc2c1 (racemic) [Compound 18, Methyl Ester of 2-(6-Methoxy-2-naphthyl)propanoic Acid]
average rate (hydrolysis) ([3]; first 45 minutes, 0.75M ester in MIBK, pH 8.50, 3.0 grams lipase): 35 µmol/h

SMILES: CC(C)Cc1ccc(C(C)C(=O)OCC[N+](C)(C)C)cc1 (centres unmarked) [Compound 10, Iodide Salt of 2-(N,N,N-Trimethylammonium)ethyl Ester of 2-(4-Isobutylphenyl)propanoic Acid]
Solubility [1]: 2180 mM
% e.e. ([4]; acid product (R), pH 7.0, 20 hours, 20-22 C): > 99%

SMILES: COc1ccc2cc(C(C)C(=O)OCC[N+](C)(C)C)ccc2c1 (centres unmarked) [Compound 11, Methyl Sulfate Salt of 2-(N,N,N-Trimethylammonium)ethyl Ester of 2-(6-Methoxy-2-naphthyl)propanoic Acid]
% e.e. ([2]; 18 hours): 34.0%

SMILES: COCCOC(=O)C(C)c1ccc(CC(C)C)cc1 (centres unmarked) [Methoxyethyl ester of ibuprofen, reference compound]
Solubility [1]: 0.18 mM (≈ 47.6 µg/mL)

SMILES: CC(C)Cc1ccc(C(C)C(=O)OCCN(C)C)cc1 (centres unmarked) [2-(N,N-dimethylamino)ethyl ester of ibuprofen, reference compound]
Solubility [1]: 10 mM (≈ 2770 µg/mL)

SMILES: CCCCCCCCOC(=O)C(C)Cl (centres unmarked) [Compound 20, Octyl Ester of 2-Chloropropanoic Acid]
water solubility [1]: approximately 1.2 mM
Solubility [1]: 1.2 mM (≈ 265 µg/mL)
initial ester hydrolyzed ([5]; at termination, 6.8 days): 41%
rate of ester hydrolysis ([5]; at the beginning of the experiment, pH 7.0, 30 grams lipase): 186 µmol/min
rate of ester hydrolysis ([5]; at the end (6.8 days)): 25 µmol/min

Continued, in another order:

Solubility [1]: 1610 mM
% CONVERSION ([2]; 100 mg Prozyme 6, 10 mmol ester in 100 ml 0.2M phosphate buffer pH 7.0, 25 C, 18 hours): 34.0%
% e.e. ([2]; 18 hours): 21.6%
SMILES: COc1ccc2cc(C(C)C(=O)OCCC[N+](C)(C)C)ccc2c1 (centres unmarked) [Compound 12, Methyl Sulfate Salt of 3-(N,N,N-Trimethylammonium)propyl Ester of 2-(6-Methoxy-2-naphthyl)propanoic Acid]

water solubility [1]: roughly 0.4 mM
Solubility [1]: 0.4 mM (≈ 115 µg/mL)
SMILES: CC(C)Cc1ccc(C(C)C(=O)OCC(F)(F)F)cc1 (centres unmarked) [Compound 19, 2,2,2-Trifluoroethyl Ester of 2-(4-Isobutylphenyl)propanoic Acid]
average hydrolytic rate ([3]; first 60 minutes, neat liquid ester, pH 7.7, 3.0 grams lipase): 160 µmol/min
conversion to acid ([3]; over the next 76 hours): about 9.8%
average hydrolysis rate ([3]; over the next 76 hours, by titrimetry): 21 µmol/min

conversion (enzymatic hydrolysis) ([4]; 2.0 gm ester in 400 ml 50 mM sodium phosphate pH 7.5, 25 degrees, 16 hours): 18%
enantiomeric excess of R isomer of naproxen (acid product) ([4]; pH 7.5, 25 degrees, 16 hours): 61.2%
enantiomeric excess of S isomer of Naproxen (from unconverted ester hydrolysed at pH 12) ([4]; pH 7.5, 25 degrees, 16 hours): 45.5%
SMILES: COc1ccc2cc(C(C)C(=O)OCS(=O)(=O)O)ccc2c1 (centres unmarked) [Compound 9, Sodium Salt of Sulfomethyl Ester of 2-(6-Methoxy-2-naphthyl)propanoic Acid]

reaction completion ([2]; 35 mg Prozyme 6, 10 mmol ester in 100 ml 0.2M sodium phosphate pH 7.0, 30 C, 1 hour): 22.5%
SMILES: CC(Oc1ccc(Cl)cc1)C(=O)OCS(=O)(=O)O (centres unmarked) [Compound 17, Sodium Salt of the Sulfomethyl Ester of 2-(4-Chlorophenoxy)propanoic Acid]

Source: US5196568A, “Compounds useful in enzymatic resolution systems and their preparation” (priority 1988, dated 1993)
